Columns and labels:
[1] = system: S. epidermidis ATCC 700565; conditions: after 24 h; ±SE; § data for comparison; ref [6]; cited from earlier work
Method: Table 2 MICs (μM±SE; N≥4; peptides dose range: 0–64 µM) after 24 h against two Gram^+ and two Gram^− bacterial strains (§ indicates data from for comparison). | column: S. epidermis

[2] = system: human cells (lymphocytes, PMNs, monocytes, HL60, HeLa, A431, A549, CCD34Lu); conditions: tumor and healthy human cells; ref Tavano et al., 2015 [6]; read-out: EC50 for killing tumor and healthy human cells; cited from earlier work
From the text: (§1) Peptaibiotics are a group of membrane active peptides of fungal origin. They typically contain α-aminoisobutyric acid (Aib; 1-letter code, U) and other non-coded residues (Toniolo and Brückner, 2009; Neumann et al., 2015; Benedett et al., 1982), [2], [3] stabilizing their helical structure. Peptaibols are peptaibiotics carrying a 1, 2-aminoalcohol at the C-terminus. When a fatty acid chain (of 8–10 carbon atoms) is present at their N-terminus, they are called lipopeptaibols (Toniolo et al., 2001; Degenkolb et al., 2003), [5]. We found (Tavano et al., 2015) that the lipo ...

[3] = system: Gram^− and Gram^+ bacteria; conditions: both Gram^− and Gram^+ bacteria; ref Tavano et al., 2015 [6]; cited from earlier work
From the text: as §1

E. coli ATCC 25922 = conditions: after 24 h; ±SE; § data for comparison; ref [6]; cited from earlier work
Method: Table 2 MICs (μM±SE; N≥4; peptides dose range: 0–64 µM) after 24 h against two Gram^+ and two Gram^− bacterial strains (§ indicates data from for comparison). | column: E. coli

P. aeruginosa ATCC 25668 = conditions: after 24 h; ±SE; § data for comparison; ref [6]; cited from earlier work
Method: Table 2 MICs (μM±SE; N≥4; peptides dose range: 0–64 µM) after 24 h against two Gram^+ and two Gram^− bacterial strains (§ indicates data from for comparison). | column: P. aeruginosa

Erythrocytes = assay: Hemolytic activity (hemoglobin release); assay type: cell-based; conditions: erythrocytes treated 24 h, hemoglobin release read spectrophotometrically; in words
Method: Fig. 7 Hemolytic activity of trichogin and its analogs. Erythrocytes were treated for 24 h with different concentration of peptides, centrifuged and hemoglobin release was measured spectrophotometrically. Hemolysis is expressed as percentage relative to positive control (erythrocytes treated with distilled water). § Indicates data from for comparison.

[4] = system: S. aureus, ATCC BAA-44 (methicillin-resistant strain); conditions: after 24 h; ±SE; § data for comparison; ref [6]; cited from earlier work
Method: Table 2 MICs (μM±SE; N≥4; peptides dose range: 0–64 µM) after 24 h against two Gram^+ and two Gram^− bacterial strains (§ indicates data from for comparison). | column: S. aureus

## Oc-UGLUGGLUGILol [GA IV, trichogin GA IV, lipopeptaibol trichogin, Oc-UGLUGGLUGILol]
[1]
  MIC S. epidermis: >64 µM
[2]
  EC50: 4 to 5 µM
[3]
  antibacterial effects (none up to the stated concentration): > 64 µM
E. coli ATCC 25922
  MIC E. coli: >64 µM
P. aeruginosa ATCC 25668
  MIC P. aeruginosa: >64 µM
Erythrocytes
  hemolytic effect: weakly hemolytic
[4]
  MIC S. aureus: >64 µM
